Laboratory results as given in PMC8276771 (Bioorganic & medicinal chemistry letters, 2021).
“Also recorded” adds a separate entry of the source.

Columns and labels:
[1] = test system: 46 receptors, channels and transporters; assay: PDSP off-target panel; format: binding
rat CD73 = conditions: rat CD73, 5 μM AMP substrate, ref Junker et al. [33], cited from earlier work
human P2Y6R = human P2Y6R (Homo sapiens, UniProt Q15077); assay: Calcium mobilization; conditions: for P2Y6R activation (in words) / fold reduction of P2Y6R potency relative to UDP 1: calcium mobilization; for P2Y6R activation (in words): hP2Y6R
hP2Y14R = molecular target: T1, hP2Y14R (Homo sapiens, UniProt Q15391); assay: Fluorescent antagonist binding assay by flow cytometry of hP2Y14R-CHO cells
T1 sequence (Q15391 1-338): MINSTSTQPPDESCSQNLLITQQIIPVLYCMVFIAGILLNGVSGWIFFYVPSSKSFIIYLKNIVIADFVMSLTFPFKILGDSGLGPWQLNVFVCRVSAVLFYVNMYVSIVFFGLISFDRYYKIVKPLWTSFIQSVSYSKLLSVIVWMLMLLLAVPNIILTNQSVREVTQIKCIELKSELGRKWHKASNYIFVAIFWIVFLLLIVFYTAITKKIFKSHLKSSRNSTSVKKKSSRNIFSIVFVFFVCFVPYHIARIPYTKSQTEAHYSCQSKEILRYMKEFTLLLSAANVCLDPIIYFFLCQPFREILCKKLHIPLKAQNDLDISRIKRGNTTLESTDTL

hP2Y6R = conditions: read-out: hP2Y6R EC50; cited from earlier work
P2Y14R = conditions: cited from earlier work
hP2YR = conditions: cited from earlier work

Sequence of human P2Y6R (Q15077 whole entry): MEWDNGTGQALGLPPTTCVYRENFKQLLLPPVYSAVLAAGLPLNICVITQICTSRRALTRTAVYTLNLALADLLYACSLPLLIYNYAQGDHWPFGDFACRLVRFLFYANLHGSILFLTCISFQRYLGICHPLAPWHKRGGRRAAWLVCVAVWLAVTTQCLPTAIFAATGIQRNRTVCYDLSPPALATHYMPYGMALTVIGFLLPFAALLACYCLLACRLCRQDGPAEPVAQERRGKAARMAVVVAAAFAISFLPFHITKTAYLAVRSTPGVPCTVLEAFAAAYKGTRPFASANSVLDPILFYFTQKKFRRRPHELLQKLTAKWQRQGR

In the case of O=c1ccn([C@@H]2O[C@H](COP(=O)(O)CP(=O)(O)O)[C@@H](O)[C@H]2O)c(=S)[nH]1 [Compound 14b, 2-thiouridine-5′-O-(α,β-methylene)diphosphate, reference compound], the “off-target activities (significant = >50% binding inhibition at 10 μM)” value [1] is listed as “no significant” and the “CD73 % inhibition at 1 μM” value (rat CD73; 1 μM) is listed as 7%.

In the case of CCN(CC)CC.CCN(CC)CC.CCn1c(=O)n([C@@H]2O[C@H](COP(=O)(O)CP(=O)(O)O)[C@@H](O)[C@H]2O)cc/c1=N/OCc1ccccc1 [Compound 38], the “P2Y6R activation (in words)” value (human P2Y6R) is reported as “completely prevent P2Y6R activation; also recorded: prevented P2Y6R activation”.

With CCN(CC)CC.CCN(CC)CC.Cn1c(=O)n([C@@H]2O[C@H](COP(=O)(O)CP(=O)(O)O)[C@@H](O)[C@H]2O)cc/c1=N/OCc1ccccc1 [Compound 37] the “P2Y6R activation (in words)” value (human P2Y6R) was “completely prevent P2Y6R activation; also recorded: prevented P2Y6R activation”.

With CCN(CC)CC.CCN(CC)CC.O=C(/N=c1/ccn([C@@H]2O[C@H](COP(=O)(O)CP(=O)(O)O)[C@@H](O)[C@H]2O)c(=O)[nH]1)c1ccccc1 [Compound 30] the “selectivity between P2Y6R and P2Y14R (in words)” value (hP2Y14R) was “nonselective”.

With CCN(CC)CC.CCN(CC)CC.CO/N=c1/ccn([C@@H]2O[C@H](COP(=O)(O)OP(=O)(O)O)[C@@H](O)[C@H]2O)c(=O)[nH]1 [Compound 11] the “fold reduction of P2Y6R potency relative to UDP 1” value (human P2Y6R) was 12 fold.

In the case of O=c1ccn([C@@H]2O[C@H](COP(=O)(O)CP(=O)(O)O)[C@@H](O)[C@@H]2O)c(=O)[nH]1 [Compound 39], the “P2Y6R activation (in words)” value (human P2Y6R) is reported as “completely prevent P2Y6R activation; also recorded: prevented P2Y6R activation”.

In the case of O=c1ccn([C@@H]2O[C@H](COP(=O)(O)OP(=O)(O)OP(=O)(O)O)[C@@H](O)[C@H]2O)c(=O)[nH]1 [UTP], the EC50 (hP2Y6R) is given as over 10000 nM and the “P2Y14R activity (in words)” value (P2Y14R) is given as “inactive”.

For O=c1ccn([C@@H]2O[C@H](COP(=O)(O)O)[C@@H](O)[C@H]2O)c(=O)[nH]1 [UMP], the “activation of hP2YRs (in words)” value (hP2YR) is listed as “does not activate any hP2YR”.

For CCN(CC)CC.CCN(CC)CC.O=c1[nH]/c(=N/OCc2ccccc2)ccn1[C@@H]1O[C@H](COP(=O)(O)OP(=O)(O)O)[C@@H](O)[C@H]1O [Compound 13], the “fold reduction of P2Y6R potency relative to UDP 1” value (human P2Y6R) was 19 fold.

In the case of CCN(CC)CC.CCN(CC)CC.O=c1[nH]c(=O)n([C@@H]2O[C@H](COP(=O)(O)CP(=O)(O)O)[C@@H](O)[C@H]2O)cc1F [Compound 16, 5-Fluoro-5′-αβ-methylene-UDP], the “selectivity between P2Y6R and P2Y14R (in words)” value (hP2Y14R) is listed as “nonselective” and the IC50 (rat CD73; read-out: CD73 IC50) is listed as over 1000 nM.

In the case of O=c1cnn([C@@H]2O[C@H](COP(=O)(O)CP(=O)(O)O)[C@@H](O)[C@H]2O)c(=O)[nH]1 [Compound 40], the “P2Y6R activation (in words)” value (human P2Y6R) is reported as “completely prevent P2Y6R activation; also recorded: prevented P2Y6R activation”.

Work on O=c1[nH]/c(=N\OCc2ccc(S(F)(F)(F)(F)F)cc2)ccn1[C@@H]1O[C@H](COP(=O)(O)CP(=O)(O)O)[C@@H](O)[C@H]1O [Compound 27] yielded an EC50 (human P2Y6R) of 1690 nM.
